“Also recorded” adds a separate entry of the source.
Legend:
ear skin = experiment: IL-23 subcutaneous injection psoriasis model, skin thickness measured with calipers; format: in vivo, mouse
Source text: (§1) To determine which cells are key to initiate psoriatic disease, Applicants studied a subcutaneous IL-23 injection model, which leads to increased skin thickness after five days of daily injections (FIG. 1a, FIG. 5a). First, Applicants assessed the role of different immune cell types in this model (FIG. 1b, FIG. 5b,c). […] This is also consistent with an increased number of human ILC3s recently observed in psoriatic patients^3,4. Moreover, while γδ T cells have been implicated in a longer treatment course^2,5, analyzing Tcrd^−/− mice, which lack only γδ T cells, Applicants found no evidence that they contribute to disease initiation (FIG. 1b). […] Applicants compared disease phenotype between control mice and those treated with FTY720, which blocks signaling from the S1P1 receptor, preventing egress of T cells from secondary lymphoid tissues and limiting trafficking of induced ILC2s^7,11. […] Thus, in contrast to a model of lung inflammation, in psoriasis, tissue-resident ILCs are sufficient to drive disease pathology and are critical for amplifying the response to IL-23.
(§2) Psoriasis model. The psoriasis model used in this study is based on rIL-23 subcutaneous injections. The 500 ng in 20 μl of rIL-23 (provided by Abbvie or purchased from R&D Systems [scRNAseq experiments]) was injected daily into the ear skin of anesthetized mice in 4 consecutive days. As a control 20 μl of PBS was used with the same injection intervals. For the second challenge experiment, Applicants waited 10 days, monitoring the skin thickness before repeating 4-day injection regimen. Skin thickness was measured daily with calipers. When indicated, FTY720 (1 mg/kg) was dissolved in PBS and administered i.p on day −1, 1 and 3 of the experiment. Skin tissue was collected on day 5 for histology imaging, flow cytometry analysis or cell sorting.

[1] = test system: circulating total white blood cells; experiment: Total circulatory white blood cell numbers after FTY720 treatment; format: in vivo, mouse; conditions: FTY720 1 mg/kg i.p., WT and Rag1−/− mice, vs untreated
Source text: as §1
Psoriasis model. The psoriasis model used in this study is based on rIL-23 subcutaneous injections. […] Skin thickness was measured daily with calipers. […]

skin ILCs [2] = experiment: Alternative psoriasis model using topical imiquimod in IL-5 fate / IL-22 BFP / IL-17A GFP reporter mouse; format: in vivo
skin ILCs [3] = experiment: Intracellular cytokine staining of skin ILCs after IL-23 treatment; format: in vivo, mouse
Source text: (§3) Next, Applicants tested the prediction of a transition during disease of IL-5-expressing ILC2s into IL-22/IL-17A-expressing ILC3-like cells. Applicants generated an IL-5 fate reporter mouse from IL-5-cre-dTomato (Red5)^50 and Rosa26^flox-Stop-floxYFP, which Applicants then combined with IL-17A^GFP 51 and IL-22^BFP expression reporters (FIG. 4b). […] Moreover, cells that expressed ILC3 type cytokines no longer expressed IL-5 (FIG. 4d). […] Finally, Applicants also tested the model's prediction that there is a subset of skin ILCs in the psoriasis model that co-expresses the type 2 cytokine IL-13 with both of the type 3 cytokines IL-22 and IL-17A.
as §2, with “sorting. […]” for “sorting.”

skin ILCs [4] = experiment: IL-5 fate mapping with IL-17A GFP and IL-22 BFP reporters after IL-23 injection; format: in vivo, mouse
Source text: as §3
Mice. C57BL/6, Tcrd^−/− and Rosa26^flox-stop-floxYFP Ai3(RCL-EYFP) mice were purchased from the Jackson Laboratories. Rag1^−/− and Rag2^−/−IL2rg^−/− were purchased from Taconic Biosciences. IL-5 Cre, dTomato (Red5/R5) from Dr Locksley laboratory. The IL-5 fate reporter in this work was generated by crossing Red5 with Ai3(RCL-EYFP) with IL-17A^GFP 51 and IL-22^BFP generated in Applicants laboratory. In order to maximize the Cre recombination and increase the signal of Rosa26^YFP positive cells, Applicants used homozygous IL-5^dTomato, Cre. Applicants observed little to no difference in IL-23 induced skin thicknening (FIG. 8a).
Psoriasis model. […] Skin thickness was measured daily with calipers. […]

CCCCCCCCc1ccc(CCC(N)(CO)CO)cc1 [FTY720, reference compound]
psoriasis phenotype induction upon IL-23 administration (skin thickness) (ear skin; FTY720-treated vs untreated controls, WT or Rag1−/− mice): no difference
increased susceptibility to a secondary challenge with IL-23 (skin thickness) (ear skin; FTY720 during the primary injection): does not impact; also recorded: also observed
circulating total white blood cells [1]: blocks; also recorded: reduction

CC(C)Cn1cnc2c(N)nc3ccccc3c21 [imiquimod]
IL-22 production, compared with IL-23 injection model (skin ILCs [2]; topically treated over 10 days): less induced
IL-17A producing cells including exIL-5 cells (skin ILCs [2]; topically treated over 10 days vs untreated mice): increase

IL-23: recombinant cytokine injected subcutaneously into ear skin to induce the psoriasis model
cells expressing IL-22 and IL-17A that also co-express IL-13 (skin ILCs [3]; Rag1−/− mice): ~20%
cells expressing IL-22 and IL-17A that also co-express IL-13 (skin ILCs [3]; WT and Tcrd−/− mice): ~10%
increase in skin thickness over the treatment course (ear skin; Rag1−/− mice (intact ILCs)): significant increase
increase in ear thickness (ear skin; Rag2−/− Il2rg−/− double mutant (lacks all lymphocytes)): did not show any increase
skin thickening, treated versus untreated recipient mice (ear skin; Rag2−/− Il2rg−/− mice with adoptively transferred sorted skin ILCs): significant skin thickening
skin thickness (ear skin; WT mice, daily subcutaneous injections, vs PBS vehicle): significantly higher; also recorded: increased
time for inflammation and skin thickness to revert to near-baseline levels (ear skin; after the initial injection): ≤ 10 days
phenotype after a second series of injections compared to initial response (ear skin; second challenge): significantly more severe
IL-22- and IL-17A-expressing cells that were ex-IL-5 producing cells (skin ILCs [4]; after IL-23 injection, fate mapping of ILC2s): ~10%
number of ex-IL-5 cells producing IL-22 and IL-17A (skin ILCs [4]; second IL-23 challenge): further elevated

From US12402610B2, “Methods and compositions for modulating innate lymphoid cell pathogenic effectors” (The Broad Institute, Inc., priority 2018, dated 2025)
